Results on two molecules are retold here after US20080038809A1, “ISOLATED LECTIN POLYPEPTIDES CONSISTING OF TRUNCATED […] UDP-GalNAc:POLYPEPTIDE N- ACETYLGALACTOSAMINYLTRANSFERASES” (GLYCOZYM APS, priority 2002, published 2008).

One assay addresses T1, GalNAc-T2 lectin domain (Homo sapiens, UniProt Q10471).
T1 construct: comprises amino acid residues 408-571 of GALNT2; made in house; host or cells: baculovirus (pAcGP67-A), virus made in Sf9, protein produced in High Five insect cells
T1 sequence (Q10471 408-571): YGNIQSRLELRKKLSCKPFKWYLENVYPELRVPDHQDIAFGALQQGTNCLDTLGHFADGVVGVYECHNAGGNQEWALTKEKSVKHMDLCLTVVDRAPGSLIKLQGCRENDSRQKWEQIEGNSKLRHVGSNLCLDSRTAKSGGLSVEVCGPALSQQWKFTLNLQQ
The assay can be described thus: Inhibition of GalNAc-T2 lectin domain (T2ld) binding to GalNAc-MUC1 glycopeptide, ELISA. Here is the method: Direct binding ELISA assay was developed as follows: Polystyrene microtiter plates (Maxisorb, Nunc, Denmark) were coated with peptides or enzymatically glycosylated glycopeptides in PBS overnight at 4° C. Plates were washed and blocked with 0.1% Tween20 and 0.2% BSA in PBS for 1 h at room temperature, followed by incubation with biotinylated proteins in PBS with 0.05% Tween20 for 2 h at room temperature. After four washes with PBS, plates were incubated with 1:2,000 dilution streptavidin-HRP (Sigma) in PBS for 30 min at room temperature and washed four times with PBS. Development was performed with 0.5 mg/ml o-phenylenediamine and 0.02% H2O2 at room temperature for 15 min, and reaction stopped by adding 100 μl/well of 0.5 N H2SO4. Competitive inhibition assays were done at end-point titers of GalNAc-transferase proteins with one hour preincubations with inhibitor.
In binding studies using lectins without biotinylation antibodies to the HIS-tag and the T7-tag, or in some experiments antibodies raised to GalNAc-T2 and -T4 enzymes were used to detect binding.
Inhibition experiments were used to further define the binding specificity of GalNAc-T2 and -T4 secreted soluble enzymes as well as lectin domains compared to Helix Pomatia lectin (Table IV).
On the technique in general: ELISA stands for enzyme-linked immunosorbent assay.

The target in the next assay is GalNAc-T7 (Homo sapiens, UniProt Q86SF2). Conditions: mM concentrations; cited from earlier work.
Sequence of GalNAc-T7 (Q86SF2 whole entry): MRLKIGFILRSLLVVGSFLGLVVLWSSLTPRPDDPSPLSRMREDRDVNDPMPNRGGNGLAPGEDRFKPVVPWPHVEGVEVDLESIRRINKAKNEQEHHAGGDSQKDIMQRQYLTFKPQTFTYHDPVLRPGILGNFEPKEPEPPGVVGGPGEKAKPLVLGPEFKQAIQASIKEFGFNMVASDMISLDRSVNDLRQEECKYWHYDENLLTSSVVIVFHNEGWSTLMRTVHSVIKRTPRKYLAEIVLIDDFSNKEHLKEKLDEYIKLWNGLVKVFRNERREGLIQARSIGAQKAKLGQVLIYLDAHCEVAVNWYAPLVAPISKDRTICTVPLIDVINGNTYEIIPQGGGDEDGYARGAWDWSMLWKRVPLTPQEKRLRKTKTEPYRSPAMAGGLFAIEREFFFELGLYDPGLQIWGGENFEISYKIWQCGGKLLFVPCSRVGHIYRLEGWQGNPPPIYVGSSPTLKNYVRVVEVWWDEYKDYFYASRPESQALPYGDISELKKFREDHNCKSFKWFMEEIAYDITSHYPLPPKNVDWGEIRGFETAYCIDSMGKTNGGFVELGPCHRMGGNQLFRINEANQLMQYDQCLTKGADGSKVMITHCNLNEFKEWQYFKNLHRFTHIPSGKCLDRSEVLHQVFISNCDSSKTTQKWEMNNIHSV
The next assay relates to HT-29 MTX cells. The assay is described as follows: Viscosity of media from HT-29 MTX cells. Format: cell-based, human. To be noted: 5 mM; data not shown. The text has this:
In order to evaluate GalNAcβ-benzyl as an inhibitor of mucin glycosylation and secretion we used the cultured colon carcinoma cells of mucin secreting phenotypes: HT-29 metotrexate (MTX) cells selected from the HT-29 cell line by culture in the presence of MTX (kind gift from G. Huet, France). The HT-29 MTX cells were selected to yield a goblet cell like phenotype with constitutive production of MUC5AC. In order to ensure proper goblet cell differentiation the HT29MTX cell line were continuously grown up to 21 days in the presence of 5 mM GalNAcα-benzyl, 5 mM GalNAcβ-benzyl, 5 mM GlcNAcα-benzyl and without inhibitor using culture conditions as described in Hennebicq-Reig et al. (Permanent exposure of mucin-secreting HT-29 cells to benzyl-N-acetyl-alpha-D-galactosaminide induces abnormal O-glycosylation of mucins and inhibits constitutive and stimulated MUC5AC secretion. Biochem J. 1998; 334:283-95). […] Furthermore the viscosity of the media from cells with and without inhibitor was evaluated using viscosity micro-measurement.

Regarding `CC(=O)N[C@H]1[C@@H](OCc2ccccc2)O[C@H](CO)[C@H](O)[C@@H]1O` [BzlαGalNAc, benzyl-N-acetyl-alpha-D-galactosaminide], the half-maximal inhibitory concentration (IC50) (in general, the point on the concentration scale where inhibition reaches its midpoint) at GalNAc-T2 lectin domain stood at 20 mM. In addition, the “inhibition of lectin mediated GalNAc-glycopeptide substrate specificity of GalNAc-T7” value at GalNAc-T7 was “can inhibit”.
Regarding `CC(=O)N[C@H]1[C@H](OCc2ccccc2)O[C@H](CO)[C@H](O)[C@@H]1O` [GalNAcβ-benzyl], the viscosity of media result with HT-29 MTX cells is recorded as “less viscous”.
